Experimental data from patent US20080114007A1 (priority 2006, published 2008).

The molecules below were run against CSF-1R (Homo sapiens, UniProt P07333) (assay: Peptide (non-phosphorylated) assay, fluorescence polarization competition immunoassay). Settings: 0.7 nM CSF-1R, 308 μM SYEGNSYTFIDPTQ peptide, 1 mM ATP, 80 min; mean of at least three determinations; read-out: c-fms Peptide IC50.
Sequence of CSF-1R (P07333 20-972): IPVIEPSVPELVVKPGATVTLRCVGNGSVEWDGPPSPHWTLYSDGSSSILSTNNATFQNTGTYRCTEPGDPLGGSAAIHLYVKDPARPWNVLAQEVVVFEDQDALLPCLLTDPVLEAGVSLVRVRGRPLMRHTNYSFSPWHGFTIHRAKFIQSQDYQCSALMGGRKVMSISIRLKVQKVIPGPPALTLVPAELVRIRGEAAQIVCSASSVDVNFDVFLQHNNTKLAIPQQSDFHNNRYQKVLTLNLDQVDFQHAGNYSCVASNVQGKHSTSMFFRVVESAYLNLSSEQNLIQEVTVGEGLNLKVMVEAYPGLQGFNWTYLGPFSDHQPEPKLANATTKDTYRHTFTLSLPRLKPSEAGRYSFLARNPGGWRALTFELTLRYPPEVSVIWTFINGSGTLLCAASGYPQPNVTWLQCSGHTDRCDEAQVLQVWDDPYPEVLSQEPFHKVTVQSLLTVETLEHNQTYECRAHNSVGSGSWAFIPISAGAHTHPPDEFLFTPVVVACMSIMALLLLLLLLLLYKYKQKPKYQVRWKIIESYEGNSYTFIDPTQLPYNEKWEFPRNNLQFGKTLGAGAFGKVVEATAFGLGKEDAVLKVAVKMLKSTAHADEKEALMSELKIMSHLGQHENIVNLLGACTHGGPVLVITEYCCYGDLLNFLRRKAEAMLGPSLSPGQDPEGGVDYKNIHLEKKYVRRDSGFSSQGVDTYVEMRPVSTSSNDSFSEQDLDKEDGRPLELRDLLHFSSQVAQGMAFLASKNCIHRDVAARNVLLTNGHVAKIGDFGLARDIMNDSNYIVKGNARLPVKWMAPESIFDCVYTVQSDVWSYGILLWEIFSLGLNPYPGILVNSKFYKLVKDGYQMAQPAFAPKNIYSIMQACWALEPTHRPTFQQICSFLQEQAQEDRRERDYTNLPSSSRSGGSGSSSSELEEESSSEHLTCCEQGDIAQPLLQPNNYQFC
Type: biochemical
In short: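 Read-out is fluorescence polarization: after EDTA quench, anti-phosphotyrosine antibody plus PTK green tracer compete with the phosphorylated peptide for 30 min. The CSF-1R reaction itself ran 80 min at room temperature after ATP addition. DMSO (4%) wells served as controls, positive controls pre-treated with EDTA.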
An IC50 of 0.59 nM was found for `CONC(=O)c1cn(-c2ccc(OC(F)(F)F)cc2)c2nc(Nc3ccc(C4CCNCC4)cc3)ncc2c1=O` [Cpd 176, 5-oxo-2-(4-piperidin-4-yl-phenylamino)-8-(4-trifluoromethoxyphenyl)-5,8-dihydro-pyrido[2,3-d]pyrimidine-6-carboxylic acid methoxy-amide] in this work.
An IC50 of 6.6 nM was found for `CONC(=O)c1cn(-c2ccc(OC(F)(F)F)cc2)c2nc(Nc3ccc(C4CCN(S(N)(=O)=O)CC4)cc3)ncc2c1=O` [Cpd 177, 5-oxo-2-[4-(1-sulfamoyl-piperidin-4-yl)-phenylamino]-8-(4-trifluoromethoxyphenyl)-5,8-dihydropyrido[2,3-d]pyrimidine-6-carboxylic acid methoxy-amide] in this work.
An IC50 of 2.6 nM was found for `CONC(=O)c1cn(-c2ccc3c(c2)CCC3)c2nc(Nc3ccc(C4CCN(S(N)(=O)=O)CC4)cc3)ncc2c1=O` [Cpd 178, 8-indan-5-yl-5-oxo-2-[4-(1-sulfamoyl-piperidin-4-yl)-phenylamino]-5,8-dihydro-pyrido[2,3-d]pyrimidine-6-carboxylic acid methoxy-amide] in this work.
An IC50 of 1.8 nM was found for `CCc1ccc(-n2cc(C(=O)NOC)c(=O)c3cnc(Nc4ccc(C5CCN(S(N)(=O)=O)CC5)cc4)nc32)cc1` [Cpd 179, 8-(4-ethyl-phenyl)-5-oxo-2-[4-(1-sulfamoyl-piperidin-4-yl)-phenylamino]-5,8-dihydro-pyrido[2,3-d]pyrimidine-6-carboxylic acid methoxy-amide] in this work.
An IC50 of 0.2 nM was found for `CCONC(=O)c1cn(-c2ccc(CC)cc2)c2nc(Nc3ccc(C4CCN(CC)CC4)cc3)ncc2c1=O` [Cpd 181, 8-(4-ethyl-phenyl)-2-[4-(1-ethyl-piperidin-4-yl)-phenylamino]-5-oxo-5,8-dihydro-pyrido[2,3-d]pyrimidine-6-carboxylic acid ethoxy-amide] in this work.
An IC50 of 0.7 nM was found for `CCc1ccc(-n2cc(C(=O)NOC(C)C)c(=O)c3cnc(Nc4ccc(C5CCN(CC)CC5)cc4)nc32)cc1` [Cpd 182, 8-(4-ethyl-phenyl)-2-[4-(1-ethyl-piperidin-4-yl)-phenylamino]-5-oxo-5,8-dihydro-pyrido[2,3-d]pyrimidine-6-carboxylic acid isopropoxy-amide] in this work.
An IC50 of 0.4 nM was found for `CCONC(=O)c1cn(-c2ccc(CC)cc2)c2nc(Nc3ccc(C4CCN(CCO)CC4)cc3)ncc2c1=O` [Cpd 183, 8-(4-ethyl-phenyl)-2-{4-[1-(2-hydroxy-ethyl)-piperidin-4-yl]-phenylamino}-5-oxo-5,8-dihydro-pyrido[2,3-d]pyrimidine-6-carboxylic acid ethoxy-amide] in this work.
An IC50 of 0.9 nM was found for `CCc1ccc(-n2cc(C(=O)NOC(C)C)c(=O)c3cnc(Nc4ccc(C5CCN(CCO)CC5)cc4)nc32)cc1` [Cpd 184, 8-(4-ethyl-phenyl)-2-{4-[1-(2-hydroxy-ethyl)-piperidin-4-yl]-phenylamino}-5-oxo-5,8-dihydro-pyrido[2,3-d]pyrimidine-6-carboxylic acid isopropoxy-amide] in this work.
An IC50 of 0.6 nM was found for `CCc1ccc(-n2cc(C(=O)NOC)c(=O)c3cnc(Nc4ccc(C5CCN(CCCO)CC5)cc4)nc32)cc1` [Cpd 185, 8-(4-ethyl-phenyl)-2-{4-[1-(3-hydroxy-propyl)-piperidin-4-yl]-phenylamino}-5-oxo-5,8-dihydro-pyrido[2,3-d]pyrimidine-6-carboxylic acid methoxy-amide] in this work.
An IC50 of 0.6 nM was found for `CCONC(=O)c1cn(-c2ccc(CC)cc2)c2nc(Nc3ccc(C4CCN(CCCO)CC4)cc3)ncc2c1=O` [Cpd 186, 8-(4-ethyl-phenyl)-2-{4-[1-(3-hydroxy-propyl)-piperidin-4-yl]-phenylamino}-5-oxo-5,8-dihydro-pyrido[2,3-d]pyrimidine-6-carboxylic acid ethoxy-amide] in this work.
An IC50 of 0.7 nM was found for `CCc1ccc(-n2cc(C(=O)NOC(C)C)c(=O)c3cnc(Nc4ccc(C5CCN(CCCO)CC5)cc4)nc32)cc1` [Cpd 187, 8-(4-ethyl-phenyl)-2-{4-[1-(3-hydroxy-propyl)-piperidin-4-yl]-phenylamino}-5-oxo-5,8-dihydro-pyrido[2,3-d]pyrimidine-6-carboxylic acid isopropoxy-amide] in this work.
An IC50 of 4.1 nM was found for `CCc1ccc(-n2cc(C(=O)NOC)c(=O)c3cnc(Nc4ccc(C5CCN(CC(F)(F)F)CC5)cc4)nc32)cc1` [Cpd 188, 8-(4-ethyl-phenyl)-5-oxo-2-{4-[1-(2,2,2-trifluoro-ethyl)-piperidin-4-yl]-phenylamino}-5,8-dihydro-pyrido[2,3-d]pyrimidine-6-carboxylic acid methoxy-amide] in this work.
An IC50 of 9.7 nM was found for `CCONC(=O)c1cn(-c2ccc(CC)cc2)c2nc(Nc3ccc(C4CCN(CC(F)(F)F)CC4)cc3)ncc2c1=O` [Cpd 189, 8-(4-ethyl-phenyl)-5-oxo-2-{4-[1-(2,2,2-trifluoro-ethyl)-piperidin-4-yl]-phenylamino}-5,8-dihydro-pyrido[2,3-d]pyrimidine-6-carboxylic acid ethoxy-amide] in this work.
An IC50 of 4.2 nM was found for `CONC(=O)c1cn(-c2ccc3c(c2)CCC3)c2nc(Nc3ccc(CCc4ncn[nH]4)cc3)ncc2c1=O` [Cpd 190, 8-indan-5-yl-5-oxo-2-{4-[2-(1H-[1,2,4]triazol-3-yl)-ethyl]-phenylamino}-5,8-dihydro-pyrido[2,3-d]pyrimidine-6-carboxylic acid methoxy-amide] in this work.
An IC50 of 5.6 nM was found for `CONC(=O)c1cn(-c2ccc(OC(F)(F)F)cc2)c2nc(Nc3ccc(CCc4n[nH]c(C)n4)cc3)ncc2c1=O` [Cpd 191, 2-{4-[2-(5-methyl-1H-[1,2,4]triazol-3-yl)-ethyl]-phenylamino}-5-oxo-8-(4-trifluoromethoxyphenyl)-5,8-dihydropyrido[2,3-d]pyrimidine-6-carboxylic acid methoxy-amide] in this work.
An IC50 of 6.3 nM was found for `CONC(=O)c1cn(-c2ccc3c(c2)CCC3)c2nc(Nc3cccc(C(=O)NCCN4CCCC4)c3)ncc2c1=O` [Cpd 192, 8-indan-5-yl-5-oxo-2-[3-(2-pyrrolidin-1-yl-ethylcarbamoyl)-phenylamino]-5,8-dihydro-pyrido[2,3-d]pyrimidine-6-carboxylic acid methoxy-amide] in this work.
An IC50 of 2.5 nM was found for `CCN1CCCC1CNC(=O)c1cccc(Nc2ncc3c(=O)c(C(=O)NOC)cn(-c4ccc5c(c4)CCC5)c3n2)c1` (centres unmarked) [Cpd 193, 2-{3-[(1-ethyl-pyrrolidin-2-ylmethyl)-carbamoyl]-phenylamino}-8-indan-5-yl-5-oxo-5,8-dihydro-pyrido[2,3-d]pyrimidine-6-carboxylic acid methoxy-amide] in this work.
An IC50 of 0.65 nM was found for `CONC(=O)c1cn(-c2ccc3c(c2)CCC3)c2nc(Nc3cccc(CCN4CCCC4)c3)ncc2c1=O` [Cpd 194, 8-indan-5-yl-5-oxo-2-[3-(2-pyrrolidin-1-yl-ethyl)-phenylamino]-5,8-dihydro-pyrido[2,3-d]pyrimidine-6-carboxylic acid methoxy-amide] in this work.
An IC50 of 0.96 nM was found for `CONC(=O)c1cn(-c2ccc3c(c2)CCC3)c2nc(Nc3cccc(N4CC(C)NC(C)C4)c3)ncc2c1=O` (centres unmarked) [Cpd 195, 2-[3-(3,5-dimethyl-piperazin-1-yl)-phenylamino]-8-indan-5-yl-5-oxo-5,8-dihydro-pyrido[2,3-d]pyrimidine-6-carboxylic acid methoxy-amide] in this work.
An IC50 of 1.7 nM was found for `CONC(=O)c1cn(-c2ccc3c(c2)CCC3)c2nc(Nc3cccc(N4CCN(C(C)=O)CC4)c3)ncc2c1=O` [Cpd 196, 2-[3-(4-acetyl-piperazin-1-yl)-phenylamino]-8-indan-5-yl-5-oxo-5,8-dihydro pyrido[2,3-d]pyrimidine-6-carboxylic acid methoxy-amide] in this work.
